US11932870B2, “Compositions and methods for immune cell modulation in adoptive immunotherapies” (Fate Therapeutics, Inc., priority 2016, dated 2024)
Where a name gives a salt, the structure may show the parent alone.

What was measured:
viable CD4+ population = assay: T cell compound screen: CCR7+CD62L+ cells in the viable CD4+ population (flow cytometry); assay type: cell-based, human; conditions: 10 μM, about 6 days; for CD4 Hit: anti-CD3/anti-CD28 beads, hit = Z-score > +2 for percent or absolute number CCR7+CD62L+ in CD4+; for number or ratio of cells co-expressing CCR7 and CD62L: viable CD4+ population
Description: (§1) In Vitro T Cell Culture. Fresh leukopaks (AllCells, Alameda, CA) were obtained from healthy donors, from which T cells were negatively selected using the EasySep Human T cell Enrichment Kit (Stem Cell Technologies, Vancouver, Canada). The freshly isolated T cells were aliquoted and cryopreserved. On the day the screens were initiated, T cells were thawed and washed into X-Vivo 15 with 5% human AB serum, IL-2, pen/strep, and additional supplements. Cells were dispensed into flat-bottom 384-well plates at 5×10^5 cells/ml with anti-CD3/anti-CD28 beads. Individual compounds were added at a final concentration of 10 μM to each well from column 3 to column 22 of each plate. Positive and negative controls were added to additional wells. Cells were incubated for about 6 days at 37 degrees with 5% CO2.
(§2) Flow Cytometry. On Day 6 of culture, cells were stained with a fixable viability marker and fluorophore-conjugated antibodies: CD3, CD4, CD8, CD45RA, CD45RO, CD62L, CCR7, CD27, and CD122 (BD Biosciences, San Jose, CA; and BioLegend, San Diego, CA). Fluorescent absolute counting beads (Spherotech, Lake Forest, IL) were added just prior to acquisition. Data acquisition was performed on a BD Fortessa X-20 (BD Biosciences) and data were analyzed using Treestar software (FlowJo, Ashland, OR) and Spotfire (Tibco, Boston, MA).
(§3) These cells are characterized by expression of CCR7 and CD62L. Therefore, cells co-expressing both of these identifying markers were evaluated. Within the viable CD4+ population and viable CD8+ population, the percent of cells co-expressing CCR7 and CD62L was determined. The expression of either CD62L or CCR7 on T cells, as indicative of the desired T cell subsets, have been described as having favorable functional characteristics for CAR-T cell therapy, and potentially other adoptive T cell therapies.
(§4) The number of events in each of these gates relative to the number of absolute counting beads in each sample was calculated, defining a measure of the absolute number of naïve, stem cell memory, or central memory T cells within the CD4+ and/or CD8+ populations. A z-Score relative to the screened compound samples within each 384-well plate was calculated for each of these four values: 1) percent CCR7+CD62L+in CD4+, 2) percent CCR7+CD62L+in CD8+, 3) absolute relative number of CCR7+CD62L+in CD4+, and 4) absolute number of CCR7+CD62L+in CD8+(FIGS. 1A and 1i). Z-scores were also calculated for the percent viability of all cells within each sample and the relative absolute number of cells within each sample. A “Z-Score” is a statistical measurement of a score's relationship to the mean in a group of scores. AZ-score of 0 means the score is the same as the mean. AZ-score can also be positive or negative, indicating whether it is above or below the mean and by how many standard deviations.

viable CD8+ population = assay: T cell compound screen: CCR7+CD62L+ cells in the viable CD8+ population (flow cytometry); assay type: cell-based, human; conditions: 10 μM, about 6 days; for CD8 Hit: anti-CD3/anti-CD28 beads, hit = Z-score > +2 for percent or absolute number CCR7+CD62L+ in CD8+; for number or ratio of cells co-expressing CCR7 and CD62L: viable CD8+ population
Description: as §1, §2, §3, §4

SMILES	CD4 Hit (viable CD4+ population)	number or ratio of cells co-expressing CCR7 and CD62L (viable CD4+ population)	CD8 Hit (viable CD8+ population)	number or ratio of cells co-expressing CCR7 and CD62L (viable CD8+ population)
CCCc1c(-c2ccc(O)cc2)nn(-c2ccc(O)cc2)c1-c1ccc(O)cc1 [1,3,5-tris(4-hydroxyphenyl)-4-propyl-1H-pyrazole]	CD4	increased	–	–
Sc1ncnc2nc[nH]c12 [6-Mercaptopurine]	CD4	increased	CD8	increased
COc1cc2nc(N3CCCN(C)CC3)nc(NC3CCN(Cc4ccccc4)CC3)c2cc1OC [BIX01294]	CD4	increased	–	–
CN(C)c1ccc(C=C2C(=O)Nc3ccccc32)cc1 [SU 4312]	–	–	CD8	increased
CN(C)[C@@H]1C(=O)C(C(N)=O)=C(O)[C@@]2(O)C(=O)C3=C(O)c4c(O)ccc(Cl)c4[C@@H](O)[C@H]3C[C@@H]12.Cl [2-Naphthacenecarboxamide, 7-chloro-4-(dimethylamino)-1,4,4a,5,5a,6,11,12a-octahy]	–	–	CD8	increased
N#CC(=C(/N)Sc1ccccc1N)/C(C#N)=C(\N)Sc1ccccc1N [U0126]	CD4	increased	–	–
Oc1c(I)cc(Cl)c2cccnc12 [8-Quinolinol, 5-chloro-7-iodo-]	CD4	increased	CD8	increased
COc1ccc(-c2cc3nccn3c(Nc3ncccc3C(N)=O)n2)cc1OC [BAY 61-3606]	CD4	increased	–	–
CC(C)C1CCC2(CO2)C2C(=O)OCC(C(=O)O)=CC12 (stereo not drawn) [Heptelidic acid]	CD4	increased	CD8	increased
C=CC1=C(C)c2cc3[nH]c(cc4nc(cc5[nH]c(cc1n2)c(C)c5CCC(=O)O)C(CCC(=O)O)=C4C)c(C)c3C=C [Protoporphyrin IX disodium]	CD4	increased	–	–
CCCc1nc2c(C)cc(-c3nc4ccccc4n3C)cc2n1Cc1ccc(-c2ccccc2C(=O)O)cc1 [Telmisartan]	CD4	increased	–	–
Oc1c(Cl)cc(Cl)c2cccnc12 [8-Quinolinol, 5,7-dichloro-]	CD4	increased	CD8	increased
C=CCc1cccc(/C=N/NC(=O)CN2CCN(Cc3ccccc3)CC2)c1O [PAC-1]	CD4	increased	–	–
C[C@]12CC[C@@H]3c4ccc(O)cc4C[C@@H](CCCCCCCCC[S+]([O-])CCCC(F)(F)C(F)(F)F)[C@H]3[C@@H]1CC[C@@H]2O (stereo partly drawn) [Fulvestrant]	–	–	CD8	increased
CC(C)(C)c1ccc(C(O)CCCN2CCC(C(O)(c3ccccc3)c3ccccc3)CC2)cc1 (stereo not drawn) [Terfenadine]	CD4	increased	–	–
NC1CCN(c2nc3c(cc2F)c(=O)c(C(=O)O)cn3-c2ccc(F)cc2F)C1 (stereo not drawn) [Tosufloxacin hydrochloride]	CD4	increased	–	–
Nc1ncn([C@@H]2O[C@H](CO)[C@@H](O)[C@H]2O)c(=O)n1 [5-Azacytidine]	CD4	increased	CD8	increased
CN[C@H]1CC[C@@H](c2ccc(Cl)c(Cl)c2)c2ccccc21 [Sertraline]	CD4	–	CD8	–
Oc1cccc(-c2nc(N3CCOCC3)c3oc4ncccc4c3n2)c1 [PI-103]	CD4	increased	CD8	increased
C/C=C(/C)C(=O)O[C@H]1C(C)=C2[C@H]([C@@H]1OC(=O)CCCCCCC)[C@@](C)(OC(C)=O)C[C@H](OC(=O)CCC)[C@@]1(O)[C@H]2OC(=O)[C@@]1(C)O [Thapsigargin]	–	–	CD8	increased
O=C(O)CN(CCN(CC(=O)O)CC(=O)O)CCN(CC(=O)O)CC(=O)O [Diethylenetriaminepentaacetic acid, pentasodium]	CD4	increased	CD8	increased
O=C(N/N=C/c1ccc([N+](=O)[O-])o1)c1ccc(O)cc1 [Nifuroxazide]	–	–	CD8	increased
O=C(O)Cc1cc(I)c(Oc2ccc(O)c(I)c2)c(I)c1 [Tiratricol]	CD4	increased	CD8	increased
CCC(CO)Nc1nc(NCc2ccccc2)c2ncn(C(C)C)c2n1 (stereo in doubt) [Roscovitine, (S)-Isomer]	CD4	increased	–	–
CC[N+](C)(C)c1cccc(O)c1 [Edrophonium chloride]	–	–	CD8	increased
CC[n+]1c(/C=C/C=C2/N(C)c3ccccc3C2(C)C)sc2ccccc21.[I-] [AC-93253 iodide]	CD4	increased	CD8	increased
N.S=C(S)N1CCCC1 [1-Pyrrolidinecarbodithioic acid, ammonium salt]	CD4	increased	–	–
